Laboratory results taken from patent publication US20250304551A1 (SHANGHAI APEIRON THERAPEUTICS COMPANY LIMITED, priority 2022, published 2025).

Key:
HT29 cells = experiment: CyQuant cell proliferation activity test, HT29; assay type: cell-based; conditions: Homo sapiens, HT-29, 72 h, HT29 2000 cells per well, 3 days incubation, initial concentration 3000 nM, IC50 by XLFIT, read-out: HT-29 Cell Viability_IC50_nM
How it was run: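 HT29 cells (2000/well, RPMI-1640 with 10% FBS) were plated overnight, then exposed to compound for 3 days at 37 °C, 5% CO2. Dosing was 9 concentrations, 3-fold dilutions from 3000 nM, in 0.20% DMSO. Proliferation was read with CyQuant reagent after 1 h, and IC50 derived from the curves.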

OVCAR3 cells = experiment: Cell proliferation activity test, OVCAR3 (CyQUANT Direct); assay type: cell-based; conditions: Homo sapiens, OVCAR-3, 72 h, 3 days incubation, CyQUANT fluorescence detection, read-out: OVCAR-3 Cell Viability_IC50_nM
How it was run: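 OVCAR3 cells seeded overnight, then exposed to compounds at 0-10 μM final (0.20% DMSO) for 3 days at 37° C. Cell number read by CyQUANT Direct fluorescence after 60 min at 37° C.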

[1] = molecular target: T1, Human KIF18A (amino acid sequence 1-417) (Homo sapiens, UniProt Q8NI77); experiment: Enzyme activity detection experiment (ADP-Glo, KIF18A with tubulin and ATP); assay type: biochemical; conditions: tubulin 60 μg/mL, ATP 25 μM, KIF18A protein 2.5 nM, 120 minutes at ambient temperature, ADP-Glo chemiluminescence
T1 construct: purchased Viva Biotech (Shanghai) Ltd
How it was run: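 KIF18A (2.5 nM) was incubated with tubulin (60 μg/mL as added), ATP (25 μM) and serially diluted compound for 120 min at ambient temperature. ADP formed was detected by ADP-Glo: reagent for 30 min, then detection reagent for 30 min in the dark, with chemiluminescence read-out.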

T1 sequence (Q8NI77 1-417): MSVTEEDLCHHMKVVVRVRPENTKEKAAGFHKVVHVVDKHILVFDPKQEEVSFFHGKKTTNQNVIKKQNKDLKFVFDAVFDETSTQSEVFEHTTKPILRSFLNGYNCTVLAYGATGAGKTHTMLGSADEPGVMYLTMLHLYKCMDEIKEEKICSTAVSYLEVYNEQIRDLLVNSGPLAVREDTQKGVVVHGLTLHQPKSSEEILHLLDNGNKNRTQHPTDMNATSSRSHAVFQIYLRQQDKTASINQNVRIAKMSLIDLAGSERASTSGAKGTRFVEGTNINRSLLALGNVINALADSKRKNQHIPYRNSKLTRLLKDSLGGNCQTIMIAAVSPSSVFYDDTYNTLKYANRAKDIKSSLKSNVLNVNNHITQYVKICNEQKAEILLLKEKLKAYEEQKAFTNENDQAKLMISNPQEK
T1 sequence (Q2XVP4 whole entry partner): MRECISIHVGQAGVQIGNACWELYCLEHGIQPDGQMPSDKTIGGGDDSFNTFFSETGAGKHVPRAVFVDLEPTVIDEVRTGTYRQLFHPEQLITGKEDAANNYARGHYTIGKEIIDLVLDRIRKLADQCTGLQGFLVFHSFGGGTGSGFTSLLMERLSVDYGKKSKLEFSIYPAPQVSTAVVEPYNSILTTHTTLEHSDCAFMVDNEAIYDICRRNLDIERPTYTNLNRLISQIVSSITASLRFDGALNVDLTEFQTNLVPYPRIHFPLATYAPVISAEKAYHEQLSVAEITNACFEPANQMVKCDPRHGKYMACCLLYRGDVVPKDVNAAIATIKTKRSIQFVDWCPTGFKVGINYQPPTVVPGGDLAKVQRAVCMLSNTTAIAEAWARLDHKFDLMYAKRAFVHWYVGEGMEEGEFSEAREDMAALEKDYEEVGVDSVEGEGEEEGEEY
T1 sequence (P02554 whole entry partner): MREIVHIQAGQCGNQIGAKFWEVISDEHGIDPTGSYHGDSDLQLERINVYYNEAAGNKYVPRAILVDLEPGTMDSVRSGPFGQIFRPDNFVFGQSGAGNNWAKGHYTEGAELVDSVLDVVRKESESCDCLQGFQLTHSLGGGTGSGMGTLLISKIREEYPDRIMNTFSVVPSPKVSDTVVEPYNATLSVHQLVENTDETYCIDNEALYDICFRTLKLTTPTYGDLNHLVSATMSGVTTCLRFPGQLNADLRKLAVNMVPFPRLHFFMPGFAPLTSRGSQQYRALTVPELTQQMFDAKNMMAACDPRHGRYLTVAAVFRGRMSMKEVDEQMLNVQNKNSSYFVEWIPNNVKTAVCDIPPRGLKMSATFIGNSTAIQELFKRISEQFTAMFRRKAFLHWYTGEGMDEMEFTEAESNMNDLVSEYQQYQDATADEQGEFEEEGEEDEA

## O=S(=O)(CCO)Nc1ccc(-n2cc(-c3cc(NCCO)nc(N4CCC(F)(F)CC4)n3)nn2)c(N2CCC3(CC2)CC3)c1 [Example 57, N-(3-{6-azaspiro[2.5]octan-6-yl}-4-{4-[2-(4,4-difluoropiperidin-1-yl)-6-[(2-hydroxyethyl)amino]pyrimidin-4-yl]-1H-1,2,3-triazol-1-yl}phenyl)-2-hydroxyethane-1-sulfonamide]
HT29 cells
  IC50: 0.0045 µM
OVCAR3 cells
  IC50: 0.008 µM
[1]
  IC50: 0.072 µM

## O=S(=O)(CCO)Nc1ccc(-n2cc(-c3cc(NC4CCOCC4)nc(N4CCC(F)(F)CC4)n3)nn2)c(N2CCC3(CC2)CC3)c1 [Example 58, N-(3-{6-azaspiro[2,5]octan-6-yl}-4-{4-[2-(4,4-difluoropiperidin-1-yl)-6-[(oxan-4-yl)amino]pyrimidin-4-yl]-1H-1,2,3-triazol-1-yl}phenyl)-2-hydroxyethane-1-sulfonamide]
HT29 cells
  IC50: 0.286 µM
OVCAR3 cells
  IC50: 0.224 µM
[1]
  IC50: 0.779 µM

## O=S(=O)(CCO)Nc1ccc(-n2cc(-c3cc(NCc4ccccn4)nc(N4CCC(F)(F)CC4)n3)nn2)c(N2CCC3(CC2)CC3)c1 [Example 59, N-(3-{6-azaspiro[2.5]octan-6-yl}-4-{4-[2-(4,4-difluoropiperidin-1-yl)-6-{[(pyridine-2-yl)methyl]amino}pyrimidin-4-yl]-1H-1,2,3-triazol-1-yl}phenyl)-2-hydroxyethane-1-sulfonamide]
HT29 cells
  IC50: 0.034 µM
OVCAR3 cells
  IC50: 0.026 µM
[1]
  IC50: 0.437 µM

## O=S(=O)(CCO)Nc1ccc(-n2cc(-c3cc(NCc4cccnc4)nc(N4CCC(F)(F)CC4)n3)nn2)c(N2CCC3(CC2)CC3)c1 [Example 60, N-(3-{6-azaspiro[2.5]octan-6-yl}-4-{4-[2-(4,4-difluoropiperidin-1-yl)-6-{[(pyridine-3-yl)methyl]amino}pyrimidin-4-yl]-1H-1,2,3-triazol-1-yl}phenyl)-2-hydroxyethane-1-sulfonamide]
HT29 cells
  IC50: 0.041 µM
OVCAR3 cells
  IC50: 0.029 µM
[1]
  IC50: 0.433 µM

## COc1cc(-c2cn(-c3ccc(NS(=O)(=O)CCO)cc3N3CCC4(CC3)CC4)nn2)cc(N2CCC(F)(F)CC2)n1 [Example 62, N-(4-(4-(2-(4,4-difluoropiperidin-1-yl)-6-methoxypyridin-4-yl)-1H-1,2,3-triazol-1-yl)-3-(6-azaspiro[2.5]octan-6-yl)phenyl)-2-hydroxyethane-1-sulfonamide]
HT29 cells
  IC50: 0.06 µM
OVCAR3 cells
  IC50: 0.059 µM
[1]
  IC50: 0.272 µM

## COc1cc(-c2cn(-c3ccc(NS(=O)(=O)CCO)cc3N3CCC4(CC3)CC4)nn2)c(F)c(N2CCC(F)(F)CC2)n1 [Example 63, N-(4-(4-(2-(4,4-difluoropiperidin-1-yl)-3-fluoro-6-methoxypyridin-4-yl)-1H-1,2,3-triazol-1-yl)-3-(6-azaspiro[2.5]octan-6-yl)phenyl)-2-hydroxyethane-1-sulfonamide]
HT29 cells
  IC50: 0.153 µM
OVCAR3 cells
  IC50: 0.108 µM
[1]
  IC50: 0.437 µM

## Cc1cc(-c2cn(-c3ccc(NS(=O)(=O)CCO)cc3N3CCC4(CC3)CC4)nn2)cc(N2CCC(F)(F)CC2)n1 [Example 64, N-(4-(4-(2-(4,4-difluoropiperidin-1-yl)-6-methylpyridin-4-yl)-1H-1,2,3-triazol-1-yl)-3-(6-azaspiro[2.5]octan-6-yl)phenyl)-2-hydroxyethane-1-sulfonamide]
HT29 cells
  IC50: 0.027 µM
OVCAR3 cells
  IC50: 0.027 µM
[1]
  IC50: 0.177 µM

## Cc1cc(-c2cn(-c3ccc(NS(=O)(=O)CCO)cc3N3CCC4(CC3)CC4)nn2)c(F)c(N2CCC(F)(F)CC2)n1 [Example 65, N-(4-(4-(2-(4,4-difluoropiperidin-1-yl)-3-fluoro-6-methylpyridin-4-yl)-1H-1,2,3-triazol-1-yl)-3-(6-azaspiro[2.5]octan-6-yl)phenyl)-2-hydroxyethane-1-sulfonamide]
HT29 cells
  IC50: 0.127 µM
OVCAR3 cells
  IC50: 0.116 µM
[1]
  IC50: 0.383 µM
